Here are results for five compounds from ChEMBL document CHEMBL1147418, “Rational design and synthesis of selective BACE-1 inhibitors” (Bioorg Med Chem Lett, 2004).

A word on the Ki: it is a measure of affinity in units of concentration, obtained from inhibition or displacement. Low values mean a stronger hold on the target, high ones a looser hold on the target.

The target of test [1] is T1, Beta-secretase 1 (Homo sapiens, UniProt P56817). Description: Tested for inhibition of Beta-secretase 1 (BACE 1) expressed in insect cell using baculovirus.
T1 sequence (P56817 whole entry): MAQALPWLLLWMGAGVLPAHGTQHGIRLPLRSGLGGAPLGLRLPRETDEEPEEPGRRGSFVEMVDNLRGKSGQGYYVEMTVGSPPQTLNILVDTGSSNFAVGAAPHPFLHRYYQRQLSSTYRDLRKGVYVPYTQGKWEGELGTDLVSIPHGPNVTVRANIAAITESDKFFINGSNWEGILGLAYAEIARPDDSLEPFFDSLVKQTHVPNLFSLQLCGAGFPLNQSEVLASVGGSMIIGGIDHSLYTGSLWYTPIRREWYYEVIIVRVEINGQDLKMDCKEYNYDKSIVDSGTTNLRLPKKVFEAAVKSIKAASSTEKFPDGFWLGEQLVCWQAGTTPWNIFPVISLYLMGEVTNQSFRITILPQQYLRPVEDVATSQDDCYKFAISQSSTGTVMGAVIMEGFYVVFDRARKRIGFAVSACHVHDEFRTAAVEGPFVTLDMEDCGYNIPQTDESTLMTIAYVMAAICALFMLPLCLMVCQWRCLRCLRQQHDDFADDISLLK
For the next test, the target named is Cathepsin D (Homo sapiens, UniProt P07339). Description: Compound was tested for inhibition of cathepsin D.
Sequence of Cathepsin D (P07339 65-162 limits assumed): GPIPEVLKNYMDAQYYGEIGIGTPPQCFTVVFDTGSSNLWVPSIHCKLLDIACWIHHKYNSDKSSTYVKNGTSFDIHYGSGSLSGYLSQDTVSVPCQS
Sequence of Cathepsin D (P07339 169-412 limits assumed): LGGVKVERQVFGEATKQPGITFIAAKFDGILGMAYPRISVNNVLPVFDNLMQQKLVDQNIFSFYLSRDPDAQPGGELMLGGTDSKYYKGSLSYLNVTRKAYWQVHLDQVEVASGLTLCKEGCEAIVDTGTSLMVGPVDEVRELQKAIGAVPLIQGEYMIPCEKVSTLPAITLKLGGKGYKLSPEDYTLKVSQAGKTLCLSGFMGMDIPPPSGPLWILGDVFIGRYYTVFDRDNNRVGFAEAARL
The next test has as its target T2, Renin (Homo sapiens, UniProt P00797).
T2 sequence (P00797 whole entry): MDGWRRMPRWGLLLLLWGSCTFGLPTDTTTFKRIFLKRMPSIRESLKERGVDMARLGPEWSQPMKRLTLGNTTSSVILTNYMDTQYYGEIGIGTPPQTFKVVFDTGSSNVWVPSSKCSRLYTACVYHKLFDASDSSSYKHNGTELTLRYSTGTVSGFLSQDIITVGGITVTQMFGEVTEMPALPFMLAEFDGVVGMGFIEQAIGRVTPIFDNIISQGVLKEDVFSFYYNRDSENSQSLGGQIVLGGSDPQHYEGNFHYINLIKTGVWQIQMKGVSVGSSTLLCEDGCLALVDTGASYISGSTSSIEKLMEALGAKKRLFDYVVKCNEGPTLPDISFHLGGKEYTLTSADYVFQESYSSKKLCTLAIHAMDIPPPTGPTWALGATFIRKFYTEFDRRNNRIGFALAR
Description: Compound was tested for inhibition of human renin.

Test [2] addresses T1, Beta-secretase 1. The experiment in a line: Compound (>1 mM ) was tested for inhibition of Beta-secretase 1 (BACE 1) expressed in insect cell using baculovirus; Not inhibited.

Consider `CC(C)CNC(=O)[C@H](CCO)C[C@H](O)[C@H](Cc1ccccc1)NC(=O)C[C@H](NC(=O)CC(C)C)C(=O)O`, for which the Ki stood at 1.9 µM at Beta-secretase 1 [1], 12.5 µM at Cathepsin D and 10.9 µM on Renin.
Take `CCC[C@H](C[C@H](O)[C@H](Cc1ccccc1)NC(=O)C[C@H](NC(=O)CC(C)C)C(=O)O)C(=O)NCC(C)C`: the figures for the Ki on Beta-secretase 1 [1], at Cathepsin D and on Renin were 69.5 µM, 28 µM and 24.4 µM, respectively.
Consider `CC(C)CC(=O)N[C@H](C(=O)N[C@H](C(=O)N[C@@H](CC(C)C)[C@@H](O)CC(=O)N[C@@H](C)C(=O)N[C@@H](CC(C)C)[C@@H](O)CC(=O)O)C(C)C)C(C)C`, for which the Activity result on Beta-secretase 1 [2] is “No inhibition”.
Consider `CC(=O)OCC[C@H](C[C@H](O)[C@H](Cc1ccccc1)NC(=O)C[C@H](NC(=O)CC(C)C)C(=O)O)C(=O)NCC(C)C`, for which the Ki at Beta-secretase 1 [1] is 2.7 µM; at Cathepsin D, 2.2 µM; at Renin, 1.9 µM.
The corresponding values for `CC(C)CNC(=O)[C@H](CCC(=O)O)C[C@H](O)[C@H](Cc1ccccc1)NC(=O)C[C@H](NC(=O)CC(C)C)C(=O)O` are 1.7 µM, 79.7 µM and 73.6 µM.
